Measured values reported in patent US6977262B2, “Dihydropyrazolopyridine compounds and pharmaceutical use thereof” (Mitsubishi Pharma Corporation, priority 2001, dated 2005).

First: CCOC(=O)C1=C(C(F)(F)F)Nc2n[nH]cc2C1c1cccc(Cl)c1 (stereo not drawn) [Example 17, Ethyl 4-(3-chlorophenyl)-4,7-dihydro-6-trifluoromethyl-2H-pyrazolo[3,4-b]pyridine-5-carboxylate]
Second: CCCC1=C(C(=O)OCC)C(c2cccc(Cl)c2)c2c[nH]nc2N1 (stereo not drawn) [Example 234, Ethyl 4-(3-chlorophenyl)-4,7-dihydro-6-propyl-2H-pyrazolo[3,4-b]pyridine-5-carboxylate]
The melting point of the first is higher: 144 to 145 °C for the first, 140 to 143 °C for the second.

First: CCCC1=C(C(=O)OCC)C(C)(c2ccccc2)c2c[nH]nc2N1 (stereo not drawn) [Example 108, Ethyl 4,7-dihydro-4-methyl-4-phenyl-6-propyl-2H-pyrazolo[3,4-b]pyridine-5-carboxylate]
Second: CCCC1=C(C(=O)OCC)C(c2ccccc2Cl)c2c[nH]nc2N1 (stereo not drawn) [Example 27, Ethyl 4-(2-chlorophenyl)-4,7-dihydro-6-propyl-2H-pyrazolo[3,4-b]pyridine-5-carboxylate]
The melting point of the first is higher: 207 °C for the first, 202 to 205 °C for the second.

First: CCOC(=O)C1=C(Cc2ccccc2)Nc2n[nH]cc2C1c1ccccc1Cl (stereo not drawn) [Example 88, Ethyl 6-benzyl-4-(2-chlorophenyl)-4,7-dihydro-2H-pyrazolo[3,4-b]pyridine-5-carboxylate]
Second: CC1=C(C(=O)OCc2ccccc2)C(c2ccccc2Cl)c2c[nH]nc2N1 (stereo not drawn) [Example 7, Benzyl 4-(2-chlorophenyl)-4,7-dihydro-6-methyl-2H-pyrazolo[3,4-b]pyridine-5-carboxylate]
The melting point of the first is higher: 247 °C for the first, 234 °C for the second.

Compared with CCCC1=C(C(=O)OCC)C(c2csc3ccccc23)c2c[nH]nc2N1 (stereo not drawn) [Example 75, Ethyl 4-(benzo[b]thiophen-3-yl)-4,7-dihydro-6-propyl-2H-pyrazolo[3,4-b]pyridine-5-carboxylate], CCCC1=C(C(=O)OCC)C(c2ccccc2Br)c2c[nH]nc2N1 (stereo not drawn) [Example 29, Ethyl 4-(2-bromophenyl)-4,7-dihydro-6-propyl-2H-pyrazolo[3,4-b]pyridine-5-carboxylate] is higher in melting point: 222 °C for the first, 223 °C for the second.

First: COC(=O)C1=C(C)Nc2n[nH]cc2C1c1ccccc1Cl (stereo not drawn) [Example 4, Methyl 4-(2-chlorophenyl)-4,7-dihydro-6-methyl-2H-pyrazolo[3,4-b]pyridine-5-carboxylate]
Second: CCOC(=O)C1=C(C)Nc2n[nH]cc2C1c1ccccc1OC (stereo not drawn) [Example 2, Ethyl 4,7-dihydro-4-(2-methoxyphenyl)-6-methyl-2H-pyrazolo[3,4-b]pyridine-5-carboxylate]
The melting point of the first is higher: 235 °C for the first, 196 to 200 °C for the second.

Compared with CCCCC1=C(C#N)C(c2cccc3nonc23)c2c[nH]nc2N1 (stereo not drawn) [Example 177, 4-(2,1,3-Benzoxadiazol-4-yl)-6-butyl-5-cyano-4,7-dihydro-2H-pyrazolo[3,4-b]pyridine], CC(C)(C)OC(=O)NCCC1=C(C#N)C(c2cccc3nonc23)c2c[nH]nc2N1 (stereo not drawn) [Example 1017, 4-(2,1,3-Benzoxadiazol-4-yl)-6-(2-(N-t-butoxycarbonyl-amino)ethyl)-5-cyano-4,7-dihydro-2H-pyrazolo[3,4-b]pyridine] is higher in melting point: 200 °C for the first, 231 °C for the second.

Compared with CCCC1=C(C(=O)OCC)C(c2ccsc2)c2c[nH]nc2N1.O=C(O)/C=C\C(=O)O (stereo not drawn) [Example 65, Ethyl 4,7-dihydro-6-propyl-4-(thiophen-3-yl)-2H-pyrazolo[3,4-b]pyridine-5-carboxylate maleate], CCCCOc1ccccc1C1C(C(=O)OCC)=C(CCC)Nc2n[nH]cc21 (stereo not drawn) [Example 36, Ethyl 4-(2-butoxyphenyl)-4,7-dihydro-6-propyl-2H-pyrazolo[3,4-b]pyridine-5-carboxylate] is higher in melting point: 141 to 143 °C for the first, 171 °C for the second.

First: CCCCC1=C(C(=O)OCC)C(c2ccccc2OC)c2c[nH]nc2N1 (stereo not drawn) [Example 90, Ethyl 6-butyl-4,7-dihydro-4-(2-methoxyphenyl)-2H-pyrazolo[3,4-b]pyridine-5-carboxylate]
Second: CCOC(=O)C1=C(c2ccccc2)Nc2n[nH]cc2C1c1ccccc1OC (stereo not drawn) [Example 92, Ethyl 4,7-dihydro-4-(2-methoxyphenyl)-6-phenyl-2H-pyrazolo[3,4-b]pyridine-5-carboxylate]
The melting point of the first is lower: 190 °C for the first, 195 °C for the second.

Compared with CCOC(=O)C1=C(C(F)(F)F)Nc2n[nH]cc2C1c1ccccc1C(F)(F)F (stereo not drawn) [Example 16, Ethyl 4,7-dihydro-6-trifluoromethyl-4-(2-trifluoromethylphenyl)-2H-pyrazolo[3,4-b]pyridine-5-carboxylate], CCCC1=C(C(=O)OCC)C(c2ccccc2Cl)c2cn(C)nc2N1 (stereo not drawn) [Example 231, Ethyl 4-(2-chlorophenyl)-4,7-dihydro-2-methyl-6-propyl-2H-pyrazolo[3,4-b]pyridine-5-carboxylate] is lower in melting point: 182 to 186 °C for the first, 150 to 151 °C for the second.

First: N#CC1=C(C2CCCCC2)Nc2n[nH]cc2C1c1cccc(C#N)c1Br (stereo not drawn) [Example 325, 4-(2-Bromo-3-cyanophenyl)-5-cyano-6-cyclohexyl-4,7-dihydro-2H-pyrazolo[3,4-b]pyridine]
Second: N#CC1=C(C2CCCCN2)Nc2n[nH]cc2C1c1cccc(C#N)c1Br.O=C(O)C(F)(F)F (stereo not drawn)
The melting point of the first is lower: 193 °C for the first, 232 °C for the second.

First: CCCC1=C(C#N)C(c2cccnc2)c2c[nH]nc2N1 (stereo not drawn) [Example 327, 5-Cyano-4,7-dihydro-6-propyl-4-(pyridin-3-yl)-2H-pyrazolo[3,4-b]pyridine]
Second: CCCC1=C(C#N)C(c2cccc3oc(C)nc23)c2c[nH]nc2N1 (stereo not drawn) [Example 139, 5-Cyano-4,7-dihydro-4-(2-methylbenzoxazol-4-yl)-6-propyl-2H-pyrazolo[3,4-b]pyridine]
The melting point of the first is lower: 201 °C for the first, 208 °C for the second.

Compared with CC(C)C1=C(C#N)C(c2cccc(N3CCOCC3)c2)c2c[nH]nc2N1 (stereo not drawn) [Example 365, 5-Cyano-4,7-dihydro-4-(3-(morpholin-4-yl)phenyl)-6-isopropyl-2H-pyrazolo[3,4-b]pyridine], CN1CC=C(C2=C(C#N)C(c3cccc4nonc34)c3c[nH]nc3N2)CC1 (stereo not drawn) [Example 1014, 4-(2,1,3-Benzoxadiazol-4-yl)-5-cyano-4,7-dihydro-6-(1-methyl-1,2,3,6-tetrahydropyridin-4-yl)-2H-pyrazolo[3,4-b]pyridine] is lower in melting point: 254 to 257 °C for the first, 218 °C for the second.

Compared with CCCC1=C(C#N)C(c2ccccc2Cl)c2cnn(C(=O)Nc3ccccc3)c2N1 (stereo not drawn) [Example 283, 4-(2-Chlorophenyl)-5-cyano-4,7-dihydro-1-phenylcarbamoyl-6-propyl-1 H-pyrazolo[3,4-b]pyridine], CCCC1=C(C(=O)OCC)C(c2ccccc2Cl)c2cnn(C(=O)OC(C)(C)C)c2N1 (stereo not drawn) [Example 204, Ethyl 1-tert-butoxycarbonyl-4-(2-chlorophenyl)-4,7-dihydro-6-propyl-1H-pyrazolo[3,4-b]pyridine-5-carboxylate] is lower in melting point: 138 to 140 °C for the first, 112 to 116 °C for the second.

Going from CCCC1=C(C(=O)OCC)C(c2ccccc2CC)c2cn[nH]c2N1 (stereo not drawn) [Example 100, Ethyl 4-(2-ethylphenyl)-4,7-dihydro-6-propyl-1H-pyrazolo[3,4-b]pyridine-5-carboxylate] to CCCCc1[nH]nc2c1C(c1ccccc1Cl)C(C#N)=C(CCC)N2 (stereo not drawn) [Example 304, 3-Butyl-4-(2-chlorophenyl)-5-cyano-4,7-dihydro-6-propyl-2H-pyrazolo[3,4-b]pyridine], the melting point rises from 186 °C to 212 °C.

First: Cc1ccccc1C1C(C#N)=C(c2ccccc2)Nc2n[nH]cc21 (stereo not drawn) [Example 248, 5-Cyano-4,7-dihydro-4-(2-methylphenyl)-6-phenyl-2H-pyrazolo[3,4-b]pyridine]
Second: CC(C)(C)OC(=O)n1cc(C2=C(C#N)C(c3cccc4nonc34)c3c[nH]nc3N2)c2ccccc21 (stereo not drawn) [Example 334, 4-(2,1,3-Benzoxadiazol-4-yl)-5-cyano-6-(1-t-butoxycarbonylindol-3-yl)-4,7-dihydro-2H-pyrazolo[3,4-b]pyridine]
The melting point of the first is higher: 246 °C for the first, 202 °C for the second.

First: N#CC1=C(C2CC2)Nc2n[nH]cc2C1c1cccc2nocc12 (stereo not drawn) [Example 333, 4-(2,1-Benzoisoxazol-4-yl)-5-cyano-6-cyclopropyl-4,7-dihydro-2H-pyrazolo[3,4-b]pyridine]
Second: CN(CCC1=C(C#N)C(c2cccc3nonc23)c2c[nH]nc2N1)C(=O)OC(C)(C)C (stereo not drawn) [Example 1015, 4-(2,1,3-Benzoxadiazol-4-yl)-6-(2-(N-t-butoxycarbonyl-N-methylamino)ethyl)-5-cyano-4,7-dihydro-2H-pyrazolo[3,4-b]-pyridine]
The melting point of the first is higher: 248 °C for the first, 240 °C for the second.

CCCC1=C(C#N)C(c2cccc(C#N)c2Br)c2c[nH]nc2N1C (stereo not drawn) [Example 348, 4-(2-Bromo-3-cyanophenyl)-5-cyano-7-methyl-6-propyl-4,7-dihydro-2H-pyrazolo[3,4-b]pyridine] gave a melting point of 218 to 220 °C.

With CCCC1=C(C(=O)OCC)C(c2cccc(Br)c2Br)c2c[nH]nc2N1 (stereo not drawn) [Example 181, Ethyl 4-(2,3-dibromophenyl)-4,7-dihydro-6-propyl-2H-pyrazolo[3,4-b]pyridine-5-carboxylate] the melting point was 180 to 183 °C (dec.).
With N#CC1=C(c2cc3ccccc3o2)Nc2n[nH]cc2C1c1cccc2nonc12 (stereo not drawn) [Example 175, 6-(Benzo[b]furan-2-yl)-4-(2,1,3-benzoxadiazol-4-yl)-5-cyano-4,7-dihydro-2H-pyrazolo[3,4-b]pyridine] the melting point was > 270 °C.
For CC(C)C1=C(C#N)C(c2ccccc2Cl)c2c[nH]nc2N1 (stereo not drawn) [Example 203, 4-(2-Chlorophenyl)-5-cyano-4,7-dihydro-6-isopropyl-2H-pyrazolo[3,4-b]pyridine], the melting point was > 250 °C.
With N#CC1=C(C2CC2)Nc2n[nH]cc2C1c1ccccc1Br (stereo not drawn) [Example 267, 4-(2-Bromophenyl)-5-cyano-6-cyclopropyl-4,7-dihydro-2H-pyrazolo[3,4-b]pyridine] the melting point was > 250 °C.
For CC(C)(C)OC(=O)N1CCC(C2=C(C#N)C(c3ccccc3Cl)c3c[nH]nc3N2)CC1 (stereo not drawn) [Example 1054, 6-(1-t-Butoxycarbonylpiperidin-4-yl)-4-(2-chlorophenyl)-5-cyano-4,7-dihydro-2H-pyrazolo[3,4-b]pyridine], the melting point was > 280 °C.
With CCOC(=O)/C=C/C1=C(C#N)C(c2ccccc2Cl)c2c[nH]nc2N1 (stereo not drawn) [Example 253, 4-(2-Chlorophenyl)-5-cyano-4,7-dihydro-6-(trans-2-ethoxycarbonylethenyl)-2H-pyrazolo[3,4-b]pyridine] the melting point was 240 to 243 °C (dec.).
